Source: patent US20130012466A1 (priority 2006, published 2013)
Entries after “also recorded” stand apart in the source; their conditions may differ. Read-outs that look alike come from different tables or passages of the source.

Tests used:
A549 = assay: Cytotoxicity assay (cell titer-glo and calcein AM), A549; details: A549, % error in parentheses
Du145 = assay: Cytotoxicity assay (cell titer-glo and calcein AM), Du145; details: Du145, % error in parentheses
tubulin = assay: In vitro tubulin polymerization assay (fluorescence-based); type: biochemical; parameters: key to tubulin polymeriz.: ‘D’ designates destabilizer; ‘S’ designates stabilizer; details: for effect on tubulin polymerization / microtubules: tested in duplicate on at least two days
Description: In vitro tubulin polymerization assays were performed using a fluorescence-based assay (Cytoskeleton, Inc., Denver, Colo.). […] Aliquots (5 μL) of each compound or control were added to a 96-well black half area plate (Corning Costar, Inc.) pre-warmed to 37° C. Cold tubulin reaction mix (50 μL 1× Buffer—80 mM piperazine-N,N′-bis[2-ethanesulfonic acid]sequisodium salt; 2.0 mM magnesium chloride; 0.5 mM ethylene glycol-bis[β-amino-ethyl ether) N,N,N′,N′-tetra-acetic acid, pH 6.9, 10 μM fluorescent reporter; 20% tubulin glycerol buffer—80 mM piperazine-N,N′-bis[2-ethanesulfonic acid] sequisodium salt; 2.0 mM magnesium chloride; 0.5 mM ethylene glycol-bis(β-amino-ethyl ether) N,N,N′,N′-tetra-acetic acid, 60% v/v glycerol, pH 6.9, 1 mM GTP; and 2 mg mL^−1 tubulin stock) was added to each of the compounds. […] Polymerization curves were generated in Excel after background correction and the effects of test compounds were compared to controls.
Library members that accelerated the rate of tubulin polymerization were deemed microtubule stabilizers, whereas compounds that decelerated the rate of tubulin polymerization were deemed microtubule de-stabilizers.

NCI-H460 = assay: Cytotoxicity assay (cell titer-glo and calcein AM), NCI-H460; details: NCI-H460, % error in parentheses
A549 cells [1] = assay: Drug combination study with colchicine (Chou-Talalay combination index); details: for plus colchicine, mean CI / plus colchicine, median CI: combination index, colchicine held at IC10, A549 cells; for interaction with colchicine: drug combination, A549 cells, Chou-Talalay
Description: (§1) Ten thousand A549 cells per well were plated in triplicate in 96 well black tissue culture treated plates. Cells were incubated for one hour at 37° C. to allow cells to attach.
(§2) All synergy experiment results were replicated at least three times and the overall effects analyzed by averaging all combination indexes generated if the fraction affected was greater than 0.2.

[2] = system: mouse mammary normal epithelial control cell line; assay: Cytotoxicity assay, normal control cell line
SF-268 = assay: Cytotoxicity assay (cell titer-glo and calcein AM), SF-268; details: SF-268, % error in parentheses
[3] = system: nine human cancer cell lines and one normal mouse control cell line; assay: Cytotoxicity screen across the whole cell line panel; type: cell-based
Hep3B = assay: Cytotoxicity assay (cell titer-glo and calcein AM), Hep3B; details: Hep 3B, % error in parentheses
A549 cells [4] = assay: Drug combination study with paclitaxel (Chou-Talalay combination index); details: for synergy (paclitaxel): combination index class, combination with paclitaxel, Chou-Talalay method; for plus paclitaxel, mean CI / plus paclitaxel, median CI: combination index, paclitaxel held at IC10, A549 cells; for interaction with paclitaxel/taxol: drug combination, A549 cells, Chou-Talalay;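 for all read-outs here: combination indexes averaged only over points where fraction affected exceeded 0.2, with each synergy experiment repeated at least three times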
Description: as §1, §2

MCF7 = assay: Cytotoxicity assay (cell titer-glo and calcein AM), MCF7
SK-OV-3 = assay: Cytotoxicity assay (cell titer-glo and calcein AM), SK-OV-3; details: SK-OV-3, % error in parentheses
ADR-RES = assay: Cytotoxicity assay (cell titer-glo and calcein AM), ADR-RES; details: NCI/ADR RES, % error in parentheses
[5] = Precipitation in assay media; type: physicochemical; details: cell culture media / assay
[6] = read-out: Cytotoxicity IC50, A549, CTG, CTG (cell titer-glo) readout
[7] = read-out: Cytotoxicity IC50, A549, calcein, calcein AM readout
[8] = read-out: Cytotoxicity IC50, Du145, CTG, CTG (cell titer-glo) readout
[9] = read-out: Cytotoxicity IC50, Du145, calcein, calcein AM readout
[10] = read-out: Cytotoxicity IC50, NCI-H460, CTG, CTG (cell titer-glo) readout
[11] = read-out: Cytotoxicity IC50, NCI-H460, calcein, calcein AM readout
[12] = read-out: Cytotoxicity IC50, NmuMG, CTG, CTG (cell titer-glo) readout, % error in parentheses
[13] = read-out: Cytotoxicity IC50, NmuMG, calcein, calcein AM readout, % error in parentheses
[14] = read-out: Cytotoxicity IC50, SF-268, CTG, CTG (cell titer-glo) readout
[15] = read-out: Cytotoxicity IC50, SF-268, calcein, calcein AM readout
[16] = read-out: Cytotoxicity IC50, Hep 3B, CTG, CTG (cell titer-glo) readout
[17] = read-out: Cytotoxicity IC50, Hep 3B, calcein, calcein AM readout
[18] = read-out: Cytotoxicity IC50, MCF7, CTG, CTG (cell titer-glo) readout, % error in parentheses
[19] = read-out: Cytotoxicity IC50, MCF7, calcein, calcein AM readout, % error in parentheses
[20] = read-out: Cytotoxicity IC50, SK-OV-3, CTG, CTG (cell titer-glo) readout
[21] = read-out: Cytotoxicity IC50, SK-OV-3, calcein, calcein AM readout
[22] = read-out: Cytotoxicity IC50, NCI/ADR RES, CTG, CTG (cell titer-glo) readout
[23] = read-out: Cytotoxicity IC50, NCI/ADR RES, calcein, calcein AM readout

Compound	IC50 (A549; [6]) [µM]	IC50 (A549; [7]) [µM]	IC50 (Du145; [8]) [µM]	IC50 (Du145; [9]) [µM]	tubulin polymeriz. (tubulin)	effect on tubulin polymerization / microtubules (tubulin)	IC50 (NCI-H460; [10]) [µM]	IC50 (NCI-H460; [11]) [µM]	IC50 [2, 12] [µM]	IC50 [2, 13] [µM]	IC50 (SF-268; [14]) [µM]	IC50 (SF-268; [15]) [µM]	IC50 (Hep3B; [16]) [µM]	IC50 (Hep3B; [17]) [µM]	IC50 (MCF7; [18]) [µM]	IC50 (MCF7; [19]) [µM]	IC50 (SK-OV-3; [20]) [µM]	IC50 (SK-OV-3; [21]) [µM]	IC50 (ADR-RES; [22]) [µM]	IC50 (ADR-RES; [23]) [µM]	also measured
2-deoxy-L-riboside [Col19]	0.376	0.636	0.369	0.262	S	stabilizing; also recorded: stabilized the microtubules	0.415	0.191	2.91	2.85	0.284	0.575	0.376	0.437	0.916	2.82	0.24	0.538	0.359	0.315	plus colchicine, mean CI (A549 cells [1]): 0.54; plus colchicine, median CI (A549 cells [1]): 0.50; interaction with colchicine (A549 cells [1]): synergism; reduction in potency relative to (1) ([3]; versus parent colchicine): ~10 fold; synergy (paclitaxel) (A549 cells [4]): — (moderate antagonism, Cl 1.2-1.45); plus paclitaxel, mean CI (A549 cells [4]): 43.20; plus paclitaxel, median CI (A549 cells [4]): 13.40; interaction with paclitaxel/taxol (A549 cells [4]): antagonism
D-glucorono-6,3-lactonide [Col45]	1.1	1.05	1.14	0.939	D	destabilizing; also recorded: destabilized microtubules	0.775	1.02	1.46	> 10	0.398	0.462	0.793	0.962	0.76	0.679	0.836	0.887	1.14	0.403	plus colchicine, mean CI (A549 cells [1]): 107.40; plus colchicine, median CI (A549 cells [1]): 102.90; interaction with colchicine (A549 cells [1]): strong antagonism; IC50 ([3]; cell lines other than ADR-Res, SF-268 and HCT-116, read-out: potencies (IC50) in all other cell lines examined): > 0.9 µM; synergy (paclitaxel) (A549 cells [4]): ++++ (strong synergism, Cl 0.1-0.3); plus paclitaxel, mean CI (A549 cells [4]): 0.12; plus paclitaxel, median CI (A549 cells [4]): 0.07; interaction with paclitaxel/taxol (A549 cells [4]): strong synergism
COc1cc2c(c(OC)c1OC)-c1ccc(OC)c(=O)cc1C(NC(=O)CN(OC)C1OC(COCc3ccccc3)C(OCc3ccccc3)C1OCc1ccccc1)CC2 (centres unmarked) [Col53]	0.048	0.062	0.041	0.032	–	–	0.041	0.071	0.12	0.392	0.037	0.018	0.047	0.069	0.049	0.039	0.042	0.036	0.046	0.037	precipitation [5]: precipitation in cell culture media; also recorded: precipitated
COc1cc2c(c(OC)c1OC)-c1ccc(OC)c(=O)cc1[C@@H](NC(=O)CN(OC)[C@@H]1O[C@H](CO)[C@@H](O[C@H]3O[C@H](CO)[C@@H](O[C@H]4O[C@H](CO)[C@@H](O)[C@H](O)[C@H]4O)[C@H](O)[C@H]3O)[C@H](O)[C@H]1O)CC2 [Col13, maltotrioside]	> 10	> 10	> 10	> 10	–	–	> 10	2.58	> 10	> 10	> 10	> 10	> 10	> 10	9.86	> 10	> 10	> 10	> 10	> 10	IC50 (HCT-116): > 10 µM
COc1cc2c(c(OC)c1OC)-c1ccc(OC)c(=O)cc1[C@@H](NC(C)=O)CC2 [colchin]	–	–	0.169	–	–	–	–	–	–	–	0.067	–	–	–	–	–	–	–	0.018	–	IC50 (HCT-116): 0.153 µM
